System: chicks fed a phytic phosphorous basal diet
Assay: chicken model: chicks fed Pi deficient phytic phosphorous diet with added 1α-hydroxyvitamin D3
Type: in vivo, Single Comb White Leghorn chicks
From the text: Animal model: The dietary sources of inorganic phosphate (Pi) are largely mineral phosphates or phosphate from animal tissues and products (milk and eggs). These Pi sources are readily available for absorption by monogastric animals. In diseases where the uptake of phosphorous requires intervention, patients are usually required to avoid these foods and take Pi binders. While this is a useful strategy in reducing the absorption of Pi, patients taking alternative food (e.g., plant based foods) during the treatment of diseases such as end stage renal failure is exposed to another source of phosphate that may serve as a pool of Pi for absorption. Phytic phosphorous (PP) represents 70-80% of all phosphorous in plant based foods. PP is normally unavailable for absorption in monogastric animals when consumed and is excreted with the fecal waste.
Providing 1α-hydroxyvitamin D3 to the chickens fed the Pi deficient diet raised the serum phosphate level. Therefore, this model can be used to test whether anti-phytic acid antibodies would be effective in reducing increased serum phosphate levels from a phytic origin caused by 1α-hydroxyvitamin D3.
Animal experiment: The model used in this study was described by Biehl and Baker, J. Nutr. 1997, 127:2054-2059 with the exception of antibodies to phytic acid. The negative control used in this study was a Pi deficient diet (Pi=inorganic phosphate which are largely mineral phosphates or phosphate from animal tissues and products such as milk and eggs), where the dietary phosphorous used was phytic phosphate. […] The positive control was the same diet as the negative control, but supplemented with 1α-hydroxyvitamin D3 (20 μg/kg diet, Sigma). […] The remaining dietary treatment was the positive control plus the antibody to phytic acid (1 g of dried egg yolk powder produced as described above). The negative and positive controls were fed 1 g/kg diet of dried yolk powder from hens injected with the adjuvant. These egg yolk powders lacked specific antibodies.
A total of 3 treatments were used (negative control, positive control, positive control plus antibody to phytic acid). Six one-day old male Single Comb White Leghorn chicks were assigned to each of the dietary treatments. Chicks were fed the dietary treatments for 10 days, weighed, and blood sampled for determining plasma phosphorous concentration using a Roche/Hitachi analyzer (based on the reaction of phosphate with ammonium molybdate to form ammonium phosphomolybdate without reduction). Excreta (n=1) was collected under each group of 6 chicks for mineral analysis. Chicks were euthanized and the right tibiotarsus of each chick was collected, dried, ether extracted, and ashed for the determination of bone mineral content of fat free, dried bone.
t-Test comparison were used to determine if (1) the addition of 1α-hydroxyvitamin D3 changed the endpoint relative to the negative control diet and (2) the addition of antibody to phytate to the 1α-hydroxyvitamin D3 diet (positive control) reduced the plasma phosphate level. P values are given in the results presented below.

[1] = relative to Pi deficient negative control diet

## C=C1/C(=C\C=C2/CCC[C@]3(C)[C@@H]([C@H](C)CCCC(C)C)CC[C@@H]23)C[C@@H](O)C[C@@H]1O [1α-hydroxyvitamin D3]
chicks, Pi deficient diet, 10 days, 1α-hydroxyvitamin D3 20 μg/kg diet alone, or plus antibody 1 g/kg diet dried egg yolk powder
  Plasma Phosphate: 6.70 mg/dL
Excreta (n=1) collected under each group of 6 chicks
  excreta phosphorous: 0.5%
[1]
  decrease of excreta phosphorous: 22%
  increase of bone ash: 8%
  increase of plasma phosphorous: 71%
Right tibiotarsus, fat free dried bone, after 10 days of diet
  bone ash: 37.4%

From patent publication US20100143385A1, “METHODS FOR REDUCING PHOSPHATE ABSORPTION” (priority 2006, published 2010)
